Experimental data as given in patent US20030073744A1, “Agent for enhancing cerebral acetylcholine release” (priority 1999, published 2003).

Columns and labels:
[1] = test system: SHRSP; experiment: Test of improving effect of disturbed sleep pattern (EEG/EMG, REMS); type: in vivo, rat; settings: 15 mg/kg orally twice daily over 5 consecutive days, FIG. 7
From the text: Test animals: Male SHRSP at 13 weeks of age, which received 1% NaCl solution instead of water over 5 weeks, and Wistar Kyoto rats (WKY) at the same age.
Test method: Animals were anesthetized, and electrodes for electroencephalogram (EEG) and a sensor for brain temperature were implanted into the cerebral cortex and electrodes for electromyogram (EMG) were implanted into the back cervical muscle. All variables were continuously recorded for 7 days, and the behavioral states of rats were classified into wakefulness, REMS, NREMS by analyzing the amplitude and frequency of EEG and EMG waves. 1-p-Anisoyl-2-pyrrolidinone at 15 mg/kg or vehicle was administered orally twice daily (morning and evening) over 5 consecutive days.

[2] = test system: ACh release; experiment: Test of the enhancing effect of ACh release (brain microdialysis in freely moving SHRSP); type: in vivo, rat; settings: for enhancement of ACh release (percent change over baseline): perfused for 20 minutes through microdialysis probe (10^-7 to 10^-5 M)
From the text: Test animals: Male stroke-prone spontaneously hypertensive rats (SHRSP) at 13 weeks of age, which received 1% NaCl solution instead of water for 5 weeks prior to the experiment. Test method: SHRSP were anesthetized and a guide cannula was implanted into the thalamus, dorsal hippocampus and prefrontal cortex. After recovery, a concentric microdialysis probe was inserted into the guide cannula and perfused with normal Ringer solution containing 10^−5 M eserine (SIGMA, St. Louis, USA) at a constant flow rate of 2 μl/min under freely moving condition. […] The dialysates for every 20 minutes were collected and injected into the high-pressure liquid chromatography system to quantify extracellular ACh levels. ACh release was expressed as percent change over the average of three consecutive stable samples collected before drug perfusion.

[3] = test system: aged Wistar rats; experiment: Test of the ameliorating effect of impaired circadian rhythm (food-motivated anticipatory activity); type: in vivo, rat; settings: 30 and 100 mg/kg orally once daily for 7 consecutive days, FIG. 5
Protocol: Test animals: Male Wistar rats at 9 weeks of age (young group) and around 30 months of age (aged group).
Test method: Animals were individually housed and had free access to food and water. After fasting for 24 hours (Day 0), feeding was restricted to only 1 hour/day from 13:30 for 6 consecutive days. Food was again withheld on Day 7, and food-motivated circadian anticipatory activity was investigated. 1-p-Anisoyl-2-pyrrolidinone at 30 and 100 mg/kg or vehicle was orally administered immediately after the feeding time, once daily for 7 consecutive days. Spontaneous motor activity was measured in each home cage.

[4] = test system: rats; settings: repeated oral administration over 4 weeks, up to 600 mg/kg
[5] = test system: rats; experiment: Acute toxicity after oral administration to rats (LD50); type: in vivo, rat; settings: both sexes
[6] = as above; type: in vivo, rat; settings: rat, in vivo
[7] = dorsal hippocampus of SHRSP, FIG. 2
[8] = prefrontal cortex of SHRSP, FIG. 3

SMILES: COc1ccc(C(=O)N2CCCC2=O)cc1 [1-p-anisoyl-2-pyrrolidinone, 1-p-Anisoyl-2-pyrrolidinone]
- reduced diurnal REMS [1]: ameliorated
- effect on ACh release ([2]; any cerebral regions (thalamus, dorsal hippocampus, prefrontal cortex) of SHRSP): not observed
- impaired food-motivated anticipatory activity [3]: significantly ameliorated

SMILES: COc1ccc(C(=O)NCCCC(=O)O)cc1 [N-anisoyl-GABA, N-anisoyl-γ-aminobutyric acid]
- sub-acute toxicity, such as lethality and abnormality in hematological, hematobiochemical and toxipathological tests [4]: not observed
- enhancement of ACh release (percent change over baseline) [2, 7]: 48%
- enhancement of ACh release (percent change over baseline) [2, 8]: 70%
- enhancement of ACh release (percent change over baseline) ([2]; thalamus of SHRSP, FIG. 1): 32%
- acute toxicity (LD50 values) [5]: more than 5,000 mg/kg

SMILES: COc1ccc(C(=O)O)cc1 [p-anisic acid]
- sub-acute toxicity, such as lethality and abnormality in hematological, hematobiochemical and toxipathological tests [4]: not observed
- enhancement of ACh release (percent change over baseline) [2, 7]: 51%
- enhancement of ACh release (percent change over baseline) [2, 8]: 61%
- enhancement of ACh release (percent change over baseline) ([2]; thalamus of SHRSP, FIG. 1): 22%
- LD50 ([6]; female animals): 2120 mg/kg
- LD50 ([6]; male animals): 1810 mg/kg
